# Measured values as given in publication PMC11121183, “Functional Characterization of a Spectrum of Genetic Variants in a Family with Succinic Semialdehyde Dehydrogenase Deficiency” (International Journal of Molecular Sciences, 2024).
# Key:
# [1] = target: T1, Succinic semialdehyde dehydrogenase (SSADH) (Homo sapiens, UniProt P51649, H180Y/N255D); experiment: intrinsic fluorescence titration (excitation […] nm); format: binding
# T1 construct: gene ALDH5A1; recombinant SSADH, amino acids 48–535, N-terminal His-tag
# T1 sequence (P51649 48-535 H180Y/N255D): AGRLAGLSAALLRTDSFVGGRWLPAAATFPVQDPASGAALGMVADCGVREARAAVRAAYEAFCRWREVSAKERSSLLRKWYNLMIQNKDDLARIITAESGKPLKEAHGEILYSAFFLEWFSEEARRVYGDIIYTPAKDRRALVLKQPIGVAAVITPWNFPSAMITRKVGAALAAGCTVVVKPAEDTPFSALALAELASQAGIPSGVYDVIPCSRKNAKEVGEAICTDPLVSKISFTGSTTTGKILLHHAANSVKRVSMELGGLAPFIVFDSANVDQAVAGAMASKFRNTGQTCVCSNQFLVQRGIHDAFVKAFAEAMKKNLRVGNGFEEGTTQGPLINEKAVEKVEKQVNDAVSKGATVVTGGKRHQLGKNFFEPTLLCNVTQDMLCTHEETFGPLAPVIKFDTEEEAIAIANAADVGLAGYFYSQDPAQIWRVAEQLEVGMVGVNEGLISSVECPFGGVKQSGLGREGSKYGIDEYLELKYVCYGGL
# [2] = target: T2, Succinic semialdehyde dehydrogenase (SSADH) (Homo sapiens, UniProt P51649); experiment: intrinsic fluorescence titration (excitation […] nm); CD and Tm shift of about […] °C in support; format: binding
# T2 construct: gene ALDH5A1; recombinant SSADH, amino acids 48–535, N-terminal His-tag
# T2 sequence (P51649 48-535): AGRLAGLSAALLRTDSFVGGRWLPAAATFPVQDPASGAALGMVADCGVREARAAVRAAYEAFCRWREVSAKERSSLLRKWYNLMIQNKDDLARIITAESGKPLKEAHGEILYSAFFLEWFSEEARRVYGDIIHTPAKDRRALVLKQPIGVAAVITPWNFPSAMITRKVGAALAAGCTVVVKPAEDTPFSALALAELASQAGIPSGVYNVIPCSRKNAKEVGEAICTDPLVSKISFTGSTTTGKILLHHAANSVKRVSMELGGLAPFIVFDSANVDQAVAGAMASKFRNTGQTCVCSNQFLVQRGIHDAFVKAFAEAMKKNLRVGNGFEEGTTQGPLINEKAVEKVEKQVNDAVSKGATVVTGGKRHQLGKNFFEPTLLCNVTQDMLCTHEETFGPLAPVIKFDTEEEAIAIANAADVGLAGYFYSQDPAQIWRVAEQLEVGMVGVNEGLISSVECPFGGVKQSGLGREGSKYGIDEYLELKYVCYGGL
# [3] = target: T3, Succinic semialdehyde dehydrogenase (SSADH) (Homo sapiens, UniProt P51649, H180Y); experiment: as above; format: binding
# T3 construct: gene ALDH5A1; recombinant SSADH, amino acids 48–535, N-terminal His-tag
# T3 sequence (P51649 48-535 H180Y): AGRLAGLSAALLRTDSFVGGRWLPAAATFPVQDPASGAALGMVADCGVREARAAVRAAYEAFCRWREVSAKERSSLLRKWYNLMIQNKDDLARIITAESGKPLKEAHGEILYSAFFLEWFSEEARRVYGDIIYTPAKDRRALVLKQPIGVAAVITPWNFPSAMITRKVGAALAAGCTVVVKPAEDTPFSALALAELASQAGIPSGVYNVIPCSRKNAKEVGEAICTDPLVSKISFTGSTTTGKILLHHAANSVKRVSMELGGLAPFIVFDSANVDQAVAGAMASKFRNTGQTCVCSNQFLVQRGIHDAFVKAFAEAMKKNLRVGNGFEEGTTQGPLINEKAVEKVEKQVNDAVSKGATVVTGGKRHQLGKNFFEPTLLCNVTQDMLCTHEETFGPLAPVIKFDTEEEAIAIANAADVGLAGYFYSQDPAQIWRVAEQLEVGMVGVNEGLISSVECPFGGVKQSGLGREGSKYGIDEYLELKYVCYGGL
# [4] = target: T3, Succinic semialdehyde dehydrogenase (SSADH); experiment: purified enzyme turnover, NADH formation at […] nm ([…] SSA, […] NAD+); format: biochemical
# [5] = target: T2, Succinic semialdehyde dehydrogenase (SSADH); experiment: as above; format: biochemical
# [6] = target: the molecule itself; experiment: SEC; Superdex 200 (10/300), 100 mM potassium phosphate, 150 mM NaCl, pH 8; 0.1 to 5 mg/mL protein loaded; 280 nm signal
molecule,measurement,setting,value
NC(=O)c1ccc[n+]([C@@H]2O[C@H](COP(=O)([O-])OP(=O)(O)OC[C@H]3O[C@@H](n4cnc5c(N)ncnc54)[C@H](O)[C@@H]3O)[C@@H](O)[C@H]2O)c1 [NAD+],Kd,[1],33 ± 13 µM
same,Kd,[2],2.8 ± 0.3 µM
same,Kd,[3],3 ± 1 µM
O=CCCC(=O)O [Succinic semialdehyde],"purified enzyme turnover, NADH formation at 340 nm (10 μM SSA, 500 μM NAD+)",[4],54 s⁻¹
same,"purified enzyme turnover, NADH formation at 340 nm (10 μM SSA, 500 μM NAD+)",[5],65 s⁻¹
"Succinic semialdehyde dehydrogenase (SSADH), wildtype, recombinant (amino acids 48-535) (enzyme, human, UniProt P51649-1 48-535, looked up, No thrombin cleavage of the His-tag is described; also called WT SSADH; WT; source: E. coli BL21, purified (HisTrap, single step)) AGRLAGLSAALLRTDSFVGGRWLPAAATFPVQDPASGAALGMVADCGVREARAAVRAAYEAFCRWREVSAKERSSLLRKWYNLMIQNKDDLARIITAESGKPLKEAHGEILYSAFFLEWFSEEARRVYGDIIHTPAKDRRALVLKQPIGVAAVITPWNFPSAMITRKVGAALAAGCTVVVKPAEDTPFSALALAELASQAGIPSGVYNVIPCSRKNAKEVGEAICTDPLVSKISFTGSTTTGKILLHHAANSVKRVSMELGGLAPFIVFDSANVDQAVAGAMASKFRNTGQTCVCSNQFLVQRGIHDAFVKAFAEAMKKNLRVGNGFEEGTTQGPLINEKAVEKVEKQVNDAVSKGATVVTGGKRHQLGKNFFEPTLLCNVTQDMLCTHEETFGPLAPVIKFDTEEEAIAIANAADVGLAGYFYSQDPAQIWRVAEQLEVGMVGVNEGLISSVECPFGGVKQSGLGREGSKYGIDEYLELKYVCYGGL",stoichiometry N,[6],4
"Succinic semialdehyde dehydrogenase (SSADH) His180Tyr variant, recombinant (amino acids 48-535) (enzyme, human, UniProt P51649-1 48-535, looked up, No thrombin cleavage of the His-tag is described; also called H180Y; rs2760118 variant; source: E. coli BL21, purified (HisTrap, single step)) AGRLAGLSAALLRTDSFVGGRWLPAAATFPVQDPASGAALGMVADCGVREARAAVRAAYEAFCRWREVSAKERSSLLRKWYNLMIQNKDDLARIITAESGKPLKEAHGEILYSAFFLEWFSEEARRVYGDIIYTPAKDRRALVLKQPIGVAAVITPWNFPSAMITRKVGAALAAGCTVVVKPAEDTPFSALALAELASQAGIPSGVYNVIPCSRKNAKEVGEAICTDPLVSKISFTGSTTTGKILLHHAANSVKRVSMELGGLAPFIVFDSANVDQAVAGAMASKFRNTGQTCVCSNQFLVQRGIHDAFVKAFAEAMKKNLRVGNGFEEGTTQGPLINEKAVEKVEKQVNDAVSKGATVVTGGKRHQLGKNFFEPTLLCNVTQDMLCTHEETFGPLAPVIKFDTEEEAIAIANAADVGLAGYFYSQDPAQIWRVAEQLEVGMVGVNEGLISSVECPFGGVKQSGLGREGSKYGIDEYLELKYVCYGGL",stoichiometry N,[6],4
